Assays:
Conditions in all cases: 72 h
Caco-2 [1] = test: cell viability relative to DMSO; higher = less toxic
Calu-3 [2] = test: as above
HepG2 [3] = test: as above
U2OS [4] = test: as above
Vero E6 [5] = test: as above
Caco-2 [6] = test: relative viability EC50 (midpoint between 100% and the lowest measured viability); higher = less toxic
Calu-3 [7] = test: as above
HepG2 [8] = test: as above
Caco-2 [9] = test: drug sensitivity score (DSS) for viability; higher = more toxic; extreme values may be limits of the assay
Calu-3 [10] = test: as above
HepG2 [11] = test: as above
U2OS [12] = test: as above
Vero E6 [13] = test: as above
U2OS [14] = test: relative viability EC50 (midpoint between 100% and the lowest measured viability); higher = less toxic
Vero E6 [15] = test: as above

Compound | cell viability (Caco-2 [1]; 1 nM) [%] | cell viability (Caco-2 [1]; 10 nM) [%] | cell viability (Caco-2 [1]; 100 nM) [%] | cell viability (Caco-2 [1]; 1000 nM) [%] | cell viability (Caco-2 [1]; 10000 nM) [%] | cell viability (Calu-3 [2]; 1 nM) [%] | cell viability (Calu-3 [2]; 10 nM) [%] | cell viability (Calu-3 [2]; 100 nM) [%] | cell viability (Calu-3 [2]; 1000 nM) [%] | cell viability (Calu-3 [2]; 10000 nM) [%] | cell viability (HepG2 [3]; 1 nM) [%] | cell viability (HepG2 [3]; 10 nM) [%] | cell viability (HepG2 [3]; 100 nM) [%] | cell viability (HepG2 [3]; 1000 nM) [%] | cell viability (HepG2 [3]; 10000 nM) [%] | cell viability (U2OS [4]; 1 nM) [%] | cell viability (U2OS [4]; 10 nM) [%] | cell viability (U2OS [4]; 100 nM) [%] | cell viability (U2OS [4]; 1000 nM) [%] | cell viability (U2OS [4]; 10000 nM) [%] | cell viability (Vero E6 [5]; 1 nM) [%] | cell viability (Vero E6 [5]; 10 nM) [%] | cell viability (Vero E6 [5]; 100 nM) [%] | cell viability (Vero E6 [5]; 1000 nM) [%] | cell viability (Vero E6 [5]; 10000 nM) [%] | relative viability EC50 (Caco-2 [6]) [µM] | relative viability EC50 (Calu-3 [7]) [µM] | relative viability EC50 (HepG2 [8]) [µM] | drug sensitivity score (Caco-2 [9]) | drug sensitivity score (Calu-3 [10]) | drug sensitivity score (HepG2 [11]) | drug sensitivity score (U2OS [12]) | drug sensitivity score (Vero E6 [13]) | relative viability EC50 (U2OS [14]) [µM] | relative viability EC50 (Vero E6 [15]) [µM]
CC(C)CNc1nc(-c2cccc3ncccc23)cn2c(-c3ccc(C(=O)NC4CC4)cc3)cnc12 [Mps-BAY-2a] | 93.1 | 82.9 | 93.1 | 79.4 | 79.9 | 107 | 98.5 | 104 | 103 | 93 | 87.9 | 100 | 86 | 57.4 | 47.6 | 101 | 97.6 | 103 | 99.1 | 70.6 | 95.7 | 94.5 | 90.1 | 71.1 | 62.2 | > 10 | > 10 | 0.255 | 3.8 | 0 | 9.3 | 1.4 | 5.9 | – | –
C=Cc1cc(O)cc2nc(-c3ccc(O)c(F)c3)oc12 [prinaberel] | 95.5 | 99.7 | 88.7 | 90 | 91.9 | 96.8 | 104 | 95.3 | 95.9 | 93.4 | 102 | 104 | 93.4 | 103 | 74.6 | 100 | 101 | 94.6 | 98.6 | 96.9 | 103 | 99.9 | 98 | 100 | 95.5 | > 10 | > 10 | – | 0.7 | 0 | 0.8 | 0 | 0 | > 10 | > 10
O=C(NCC1(N2CCN(c3ccccc3)CC2)CCOCC1)c1cccnc1Sc1ccccc1 | 99.8 | 97.4 | 103 | 98.1 | 94.1 | 99.4 | 106 | 104 | 99.8 | 95 | 107 | 101 | 103 | 97.5 | 91.4 | 96.1 | 96.5 | 101 | 98.9 | 102 | – | – | – | – | – | > 10 | > 10 | > 10 | 0 | 0 | 0 | 0 | – | > 10 | –
Cc1ccc(C(=O)Nc2ccc(Oc3cc4cnn(C)c4cc3-c3cn[nH]c3)c(F)c2)c(=O)n1-c1ccc(F)cc1 | 98 | 94.9 | 102 | 99.3 | 53.8 | 92 | 91.9 | 101 | 70.7 | 65.3 | 102 | 110 | 97.4 | 75.5 | 15.6 | 101 | 95.5 | 98.8 | 96.9 | 69.9 | 103 | 99.6 | 96.7 | 92.1 | 68.1 | – | – | 1.43 | 2.5 | 5.1 | 8.3 | 1.8 | 2.6 | – | –
CCCCCCCCCCCCCCCCCCCCCCCCC(=O)O [pentacosanoic-acid] | 99.2 | 106 | 103 | 96.8 | 101 | 91.9 | 97.1 | 92.5 | 92.2 | 102 | 112 | 109 | 98 | 102 | 111 | 98.3 | 98.5 | 97.4 | 95.9 | 106 | – | – | – | – | – | > 10 | > 10 | > 10 | 0 | 0 | 0 | 0 | – | > 10 | –
CC(C)(C)C[C@@H]1N[C@@H](C(=O)N[C@H]2CC[C@H](O)CC2)[C@H](c2cccc(Cl)c2F)[C@]12C(=O)Nc1cc(Cl)ccc12 | 97.7 | 104 | 91 | 94.3 | 73.2 | 90.6 | 92.3 | 95.5 | 110 | 73.1 | 108 | 95.8 | 95.5 | 28.7 | 24.2 | 99.6 | 109 | 96.3 | 80.7 | 58.2 | 100 | 102 | 97.8 | 63.4 | 49.3 | – | – | 0.315 | 1.7 | 0.7 | 13.8 | 4.2 | 7.2 | – | 0.583
CCn1c(=O)n([C@H]2CCCN(c3nccc(-c4cc5ccccc5o4)n3)C2)c2ccccc21 [TC-F-2] | 95.6 | 91.4 | 85.1 | 92 | 84.9 | 98.8 | 99.6 | 114 | 104 | 98.4 | 96 | 103 | 99.2 | 90.7 | 56.9 | 95.1 | 101 | 96.4 | 98.8 | 96.5 | 103 | 99.5 | 96.1 | 96.6 | 102 | > 10 | > 10 | – | 1.4 | 0 | 3.7 | 0 | 0 | > 10 | > 10

— the supplement of paper PMC13380429
